What follows are compounds tested on HCI-016 (organoid from a triple-negative breast cancer xenograft) (assay: CTG-3D luminescence at 96 h relative to day-0 seeding control (ratio to day 0); higher = more growth / less cytotoxicity; PDxO 3D drug screen, 96 h, CTG-3D normalised to day-0 seeding control.). Details: 100 µM; days in culture: 153.
`C[C@@H]1COCCN1c1cc(C2([S@](C)(=N)=O)CC2)nc(-c2cc[nH]c3nccc2-3)n1` [ceralasertib] was tested, and the “CTG-3D luminescence at 96 h” value was 0.0761.
`CCN1CCN(Cc2ccc(Nc3ncc(F)c(-c4cc(F)c5nc(C)n(C(C)C)c5c4)n3)nc2)CC1` [abemaciclib] was tested, and the “CTG-3D luminescence at 96 h” value was 0.0128.
With `NC1(C(=O)N[C@@H](CCO)c2ccc(Cl)cc2)CCN(c2nc[nH]c3nccc2-3)CC1` [capivasertib] the “CTG-3D luminescence at 96 h” value was 0.426.
`CC(C)n1nc(-c2ccc3oc(N)nc3c2)c2c(N)ncnc21` [sapanisertib] was tested, and the “CTG-3D luminescence at 96 h” value was 0.0999.
For `O=C(c1ccc(F)c(F)c1Nc1ccc(I)cc1F)N1CC(O)([C@@H]2CCCCN2)C1` [cobimetinib], the “CTG-3D luminescence at 96 h” value was 0.0036.
`C[C@H](NC(=O)CCC(F)(F)F)C(=O)N[C@@H]1C(=O)N(CCO)c2ncccc2-c2ccccc21` [crenigacestat] was tested, and the “CTG-3D luminescence at 96 h” value was 2.19.
In the case of `Cc1cc(Nc2ncc(Cl)c(Nc3ccccc3S(=O)(=O)C(C)C)n2)c(OC(C)C)cc1C1CCNCC1` [ceritinib], the “CTG-3D luminescence at 96 h” value is reported as -0.00664.
`CS(=O)(=O)c1ccc(C(=O)Nc2ccc(Cl)c(-c3ccccn3)c2)c(Cl)c1` [vismodegib] was tested, and the “CTG-3D luminescence at 96 h” value was 0.626.
For `NC(=O)c1cccc2cn(-c3ccc([C@@H]4CCCNC4)cc3)nc12` [niraparib], the “CTG-3D luminescence at 96 h” value was -0.00489.

Same assay, conditions: 100 µM; days in culture: 172
For `C[C@@H]1COCCN1c1cc(C2([S@](C)(=N)=O)CC2)nc(-c2cc[nH]c3nccc2-3)n1` [ceralasertib], the “CTG-3D luminescence at 96 h” value was 0.0786.
With `CCN1CCN(Cc2ccc(Nc3ncc(F)c(-c4cc(F)c5nc(C)n(C(C)C)c5c4)n3)nc2)CC1` [abemaciclib] the “CTG-3D luminescence at 96 h” value was 0.0115.
In the case of `NC1(C(=O)N[C@@H](CCO)c2ccc(Cl)cc2)CCN(c2nc[nH]c3nccc2-3)CC1` [capivasertib], the “CTG-3D luminescence at 96 h” value is reported as 0.453.
For `CC(C)n1nc(-c2ccc3oc(N)nc3c2)c2c(N)ncnc21` [sapanisertib], the “CTG-3D luminescence at 96 h” value was 0.191.
With `O=C(c1ccc(F)c(F)c1Nc1ccc(I)cc1F)N1CC(O)([C@@H]2CCCCN2)C1` [cobimetinib] the “CTG-3D luminescence at 96 h” value was 0.0013.
With `C[C@H](NC(=O)CCC(F)(F)F)C(=O)N[C@@H]1C(=O)N(CCO)c2ncccc2-c2ccccc21` [crenigacestat] the “CTG-3D luminescence at 96 h” value was 1.76.
In the case of `Cc1cc(Nc2ncc(Cl)c(Nc3ccccc3S(=O)(=O)C(C)C)n2)c(OC(C)C)cc1C1CCNCC1` [ceritinib], the “CTG-3D luminescence at 96 h” value is reported as -0.00483.
For `CS(=O)(=O)c1ccc(C(=O)Nc2ccc(Cl)c(-c3ccccn3)c2)c(Cl)c1` [vismodegib], the “CTG-3D luminescence at 96 h” value was 0.75.
For `NC(=O)c1cccc2cn(-c3ccc([C@@H]4CCCNC4)cc3)nc12` [niraparib], the “CTG-3D luminescence at 96 h” value was -0.00828.

Same assay, conditions: 100 µM; days in culture: 190
In the case of `C[C@@H]1COCCN1c1cc(C2([S@](C)(=N)=O)CC2)nc(-c2cc[nH]c3nccc2-3)n1` [ceralasertib], the “CTG-3D luminescence at 96 h” value is reported as 0.0608.
`CCN1CCN(Cc2ccc(Nc3ncc(F)c(-c4cc(F)c5nc(C)n(C(C)C)c5c4)n3)nc2)CC1` [abemaciclib] was tested, and the “CTG-3D luminescence at 96 h” value was 0.00813.
With `NC1(C(=O)N[C@@H](CCO)c2ccc(Cl)cc2)CCN(c2nc[nH]c3nccc2-3)CC1` [capivasertib] the “CTG-3D luminescence at 96 h” value was 0.565.
For `CC(C)n1nc(-c2ccc3oc(N)nc3c2)c2c(N)ncnc21` [sapanisertib], the “CTG-3D luminescence at 96 h” value was 0.149.
For `O=C(c1ccc(F)c(F)c1Nc1ccc(I)cc1F)N1CC(O)([C@@H]2CCCCN2)C1` [cobimetinib], the “CTG-3D luminescence at 96 h” value was 0.00248.
`C[C@H](NC(=O)CCC(F)(F)F)C(=O)N[C@@H]1C(=O)N(CCO)c2ncccc2-c2ccccc21` [crenigacestat] was tested, and the “CTG-3D luminescence at 96 h” value was 1.74.
`Cc1cc(Nc2ncc(Cl)c(Nc3ccccc3S(=O)(=O)C(C)C)n2)c(OC(C)C)cc1C1CCNCC1` [ceritinib] was tested, and the “CTG-3D luminescence at 96 h” value was -0.0035.
For `CS(=O)(=O)c1ccc(C(=O)Nc2ccc(Cl)c(-c3ccccn3)c2)c(Cl)c1` [vismodegib], the “CTG-3D luminescence at 96 h” value was 0.376.
`NC(=O)c1cccc2cn(-c3ccc([C@@H]4CCCNC4)cc3)nc12` [niraparib] was tested, and the “CTG-3D luminescence at 96 h” value was -0.105.

Same assay, conditions: 100 µM; days in culture: 199
For `C[C@@H]1COCCN1c1cc(C2([S@](C)(=N)=O)CC2)nc(-c2cc[nH]c3nccc2-3)n1` [ceralasertib], the “CTG-3D luminescence at 96 h” value was 0.0684.
For `CCN1CCN(Cc2ccc(Nc3ncc(F)c(-c4cc(F)c5nc(C)n(C(C)C)c5c4)n3)nc2)CC1` [abemaciclib], the “CTG-3D luminescence at 96 h” value was 0.00916.
`NC1(C(=O)N[C@@H](CCO)c2ccc(Cl)cc2)CCN(c2nc[nH]c3nccc2-3)CC1` [capivasertib] was tested, and the “CTG-3D luminescence at 96 h” value was 0.407.
`CC(C)n1nc(-c2ccc3oc(N)nc3c2)c2c(N)ncnc21` [sapanisertib] was tested, and the “CTG-3D luminescence at 96 h” value was 0.119.
With `O=C(c1ccc(F)c(F)c1Nc1ccc(I)cc1F)N1CC(O)([C@@H]2CCCCN2)C1` [cobimetinib] the “CTG-3D luminescence at 96 h” value was 0.00262.
In the case of `C[C@H](NC(=O)CCC(F)(F)F)C(=O)N[C@@H]1C(=O)N(CCO)c2ncccc2-c2ccccc21` [crenigacestat], the “CTG-3D luminescence at 96 h” value is reported as 1.73.
In the case of `Cc1cc(Nc2ncc(Cl)c(Nc3ccccc3S(=O)(=O)C(C)C)n2)c(OC(C)C)cc1C1CCNCC1` [ceritinib], the “CTG-3D luminescence at 96 h” value is reported as -0.00558.
`CS(=O)(=O)c1ccc(C(=O)Nc2ccc(Cl)c(-c3ccccn3)c2)c(Cl)c1` [vismodegib] was tested, and the “CTG-3D luminescence at 96 h” value was 0.655.
In the case of `NC(=O)c1cccc2cn(-c3ccc([C@@H]4CCCNC4)cc3)nc12` [niraparib], the “CTG-3D luminescence at 96 h” value is reported as -0.0141.

Same assay, conditions: 625 fM; days in culture: 153
With `C[C@@H]1COCCN1c1cc(C2([S@](C)(=N)=O)CC2)nc(-c2cc[nH]c3nccc2-3)n1` [ceralasertib] the “CTG-3D luminescence at 96 h” value was 2.11.
With `CCN1CCN(Cc2ccc(Nc3ncc(F)c(-c4cc(F)c5nc(C)n(C(C)C)c5c4)n3)nc2)CC1` [abemaciclib] the “CTG-3D luminescence at 96 h” value was 2.64.
In the case of `NC1(C(=O)N[C@@H](CCO)c2ccc(Cl)cc2)CCN(c2nc[nH]c3nccc2-3)CC1` [capivasertib], the “CTG-3D luminescence at 96 h” value is reported as 2.85.
With `CC(C)n1nc(-c2ccc3oc(N)nc3c2)c2c(N)ncnc21` [sapanisertib] the “CTG-3D luminescence at 96 h” value was 3.03.
`O=C(c1ccc(F)c(F)c1Nc1ccc(I)cc1F)N1CC(O)([C@@H]2CCCCN2)C1` [cobimetinib] was tested, and the “CTG-3D luminescence at 96 h” value was 2.59.
For `C[C@H](NC(=O)CCC(F)(F)F)C(=O)N[C@@H]1C(=O)N(CCO)c2ncccc2-c2ccccc21` [crenigacestat], the “CTG-3D luminescence at 96 h” value was 2.92.
For `Cc1cc(Nc2ncc(Cl)c(Nc3ccccc3S(=O)(=O)C(C)C)n2)c(OC(C)C)cc1C1CCNCC1` [ceritinib], the “CTG-3D luminescence at 96 h” value was 2.35.
`CS(=O)(=O)c1ccc(C(=O)Nc2ccc(Cl)c(-c3ccccn3)c2)c(Cl)c1` [vismodegib] was tested, and the “CTG-3D luminescence at 96 h” value was 2.46.
With `NC(=O)c1cccc2cn(-c3ccc([C@@H]4CCCNC4)cc3)nc12` [niraparib] the “CTG-3D luminescence at 96 h” value was 2.67.

Same assay, conditions: 625 fM; days in culture: 172
For `C[C@@H]1COCCN1c1cc(C2([S@](C)(=N)=O)CC2)nc(-c2cc[nH]c3nccc2-3)n1` [ceralasertib], the “CTG-3D luminescence at 96 h” value was 1.92.
`CCN1CCN(Cc2ccc(Nc3ncc(F)c(-c4cc(F)c5nc(C)n(C(C)C)c5c4)n3)nc2)CC1` [abemaciclib] was tested, and the “CTG-3D luminescence at 96 h” value was 1.34.
With `NC1(C(=O)N[C@@H](CCO)c2ccc(Cl)cc2)CCN(c2nc[nH]c3nccc2-3)CC1` [capivasertib] the “CTG-3D luminescence at 96 h” value was 1.75.
For `CC(C)n1nc(-c2ccc3oc(N)nc3c2)c2c(N)ncnc21` [sapanisertib], the “CTG-3D luminescence at 96 h” value was 1.68.
With `O=C(c1ccc(F)c(F)c1Nc1ccc(I)cc1F)N1CC(O)([C@@H]2CCCCN2)C1` [cobimetinib] the “CTG-3D luminescence at 96 h” value was 1.63.
`C[C@H](NC(=O)CCC(F)(F)F)C(=O)N[C@@H]1C(=O)N(CCO)c2ncccc2-c2ccccc21` [crenigacestat] was tested, and the “CTG-3D luminescence at 96 h” value was 1.73.
In the case of `Cc1cc(Nc2ncc(Cl)c(Nc3ccccc3S(=O)(=O)C(C)C)n2)c(OC(C)C)cc1C1CCNCC1` [ceritinib], the “CTG-3D luminescence at 96 h” value is reported as 2.1.
In the case of `CS(=O)(=O)c1ccc(C(=O)Nc2ccc(Cl)c(-c3ccccn3)c2)c(Cl)c1` [vismodegib], the “CTG-3D luminescence at 96 h” value is reported as 2.02.
For `NC(=O)c1cccc2cn(-c3ccc([C@@H]4CCCNC4)cc3)nc12` [niraparib], the “CTG-3D luminescence at 96 h” value was 1.66.

Same assay, conditions: 625 fM; days in culture: 190
For `C[C@@H]1COCCN1c1cc(C2([S@](C)(=N)=O)CC2)nc(-c2cc[nH]c3nccc2-3)n1` [ceralasertib], the “CTG-3D luminescence at 96 h” value was 1.28.
`CCN1CCN(Cc2ccc(Nc3ncc(F)c(-c4cc(F)c5nc(C)n(C(C)C)c5c4)n3)nc2)CC1` [abemaciclib] was tested, and the “CTG-3D luminescence at 96 h” value was 1.43.
With `NC1(C(=O)N[C@@H](CCO)c2ccc(Cl)cc2)CCN(c2nc[nH]c3nccc2-3)CC1` [capivasertib] the “CTG-3D luminescence at 96 h” value was 1.47.
With `CC(C)n1nc(-c2ccc3oc(N)nc3c2)c2c(N)ncnc21` [sapanisertib] the “CTG-3D luminescence at 96 h” value was 1.23.
For `O=C(c1ccc(F)c(F)c1Nc1ccc(I)cc1F)N1CC(O)([C@@H]2CCCCN2)C1` [cobimetinib], the “CTG-3D luminescence at 96 h” value was 1.37.
`C[C@H](NC(=O)CCC(F)(F)F)C(=O)N[C@@H]1C(=O)N(CCO)c2ncccc2-c2ccccc21` [crenigacestat] was tested, and the “CTG-3D luminescence at 96 h” value was 0.976.
`Cc1cc(Nc2ncc(Cl)c(Nc3ccccc3S(=O)(=O)C(C)C)n2)c(OC(C)C)cc1C1CCNCC1` [ceritinib] was tested, and the “CTG-3D luminescence at 96 h” value was 1.25.
For `CS(=O)(=O)c1ccc(C(=O)Nc2ccc(Cl)c(-c3ccccn3)c2)c(Cl)c1` [vismodegib], the “CTG-3D luminescence at 96 h” value was 1.7.
`NC(=O)c1cccc2cn(-c3ccc([C@@H]4CCCNC4)cc3)nc12` [niraparib] was tested, and the “CTG-3D luminescence at 96 h” value was 1.59.

Same assay, conditions: 625 fM; days in culture: 199
In the case of `C[C@@H]1COCCN1c1cc(C2([S@](C)(=N)=O)CC2)nc(-c2cc[nH]c3nccc2-3)n1` [ceralasertib], the “CTG-3D luminescence at 96 h” value is reported as 1.6.
With `CCN1CCN(Cc2ccc(Nc3ncc(F)c(-c4cc(F)c5nc(C)n(C(C)C)c5c4)n3)nc2)CC1` [abemaciclib] the “CTG-3D luminescence at 96 h” value was 1.85.
For `NC1(C(=O)N[C@@H](CCO)c2ccc(Cl)cc2)CCN(c2nc[nH]c3nccc2-3)CC1` [capivasertib], the “CTG-3D luminescence at 96 h” value was 1.79.
With `CC(C)n1nc(-c2ccc3oc(N)nc3c2)c2c(N)ncnc21` [sapanisertib] the “CTG-3D luminescence at 96 h” value was 1.63.
With `O=C(c1ccc(F)c(F)c1Nc1ccc(I)cc1F)N1CC(O)([C@@H]2CCCCN2)C1` [cobimetinib] the “CTG-3D luminescence at 96 h” value was 1.78.
In the case of `C[C@H](NC(=O)CCC(F)(F)F)C(=O)N[C@@H]1C(=O)N(CCO)c2ncccc2-c2ccccc21` [crenigacestat], the “CTG-3D luminescence at 96 h” value is reported as 1.76.
With `Cc1cc(Nc2ncc(Cl)c(Nc3ccccc3S(=O)(=O)C(C)C)n2)c(OC(C)C)cc1C1CCNCC1` [ceritinib] the “CTG-3D luminescence at 96 h” value was 1.96.
With `CS(=O)(=O)c1ccc(C(=O)Nc2ccc(Cl)c(-c3ccccn3)c2)c(Cl)c1` [vismodegib] the “CTG-3D luminescence at 96 h” value was 2.15.
In the case of `NC(=O)c1cccc2cn(-c3ccc([C@@H]4CCCNC4)cc3)nc12` [niraparib], the “CTG-3D luminescence at 96 h” value is reported as 2.02.

Source: the supplement of paper PMC8882468
